We go through 7 compounds from PubChem BioAssay (NCI).

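Where inhibition never reached the appropriate level, the endpoint shown equals the highest concentration tested. Otherwise, values were interpolated linearly from a five-concentration, 48-hour dose response in 96-well plates. GI50 marks 50% less growth. TGI marks complete inhibition of growth.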 A value given as a limit tells only on which side of the number the result lay.

Test systems include CCRF-CEM leukemia; IGROV1 ovarian; SF-295 CNS; COLO 205 colon; A549 NSCLC; SN12C renal; MDA-MB-435; UACC-257 melanoma; NCI-H23 lung; SF-539 CNS.
Assay in all cases: DTP human tumour cell line panel, 48 h

Broadly, the GI50 is the concentration giving 50% growth inhibition. A word on the TGI: it is the concentration giving total growth inhibition. For the compound `Oc1ccc(-c2[nH]c3ccccc3c2-c2nc3ccccc3o2)cc1`, the GI50 is 4.91 µM with CCRF-CEM leukemia; 3.34 µM with IGROV1 ovarian; 4.48 µM in the assay on SF-295 CNS; 3.54 µM in the assay on COLO 205 colon; 3.15 µM with A549 NSCLC; 4.88 µM in the assay on SN12C renal. In addition, the GI50 is 2.26 µM with MDA-MB-435, 4.59 µM with UACC-257 melanoma, 2.26 µM in the assay on NCI-H23 lung and 7.56 µM in the assay with SF-539 CNS. Further, the TGI in the assay with CCRF-CEM leukemia is 46.2 µM; in the assay on IGROV1 ovarian it was 16.3 µM; in the assay on SF-295 CNS, 19.4 µM; in the assay with COLO 205 colon, 12.6 µM; with A549 NSCLC, 11.4 µM; in the assay with SN12C renal, 18.5 µM. For the same compound, the TGI in the assay with MDA-MB-435 is 8.74 µM; with UACC-257 melanoma it was 18.3 µM; in the assay with NCI-H23 lung, 9.88 µM; in the assay on SF-539 CNS, 22.1 µM.

For `COc1ccc(C(=O)/C=C/c2ccc(OCc3ccccc3)c(OC)c2)cc1OC`, the GI50 in the assay with CCRF-CEM leukemia was 3.04 µM; in the assay on IGROV1 ovarian, 5.04 µM; with COLO 205 colon, 3.53 µM; in the assay on A549 NSCLC it was 3.05 µM; in the assay with SN12C renal, 3.97 µM; with MDA-MB-435, 2.97 µM. For the same compound, the GI50 was 6.25 µM in the assay on UACC-257 melanoma, 4.18 µM with NCI-H23 lung and 2.67 µM with SF-539 CNS. Also, the TGI in the assay with CCRF-CEM leukemia is 71.2 µM; with IGROV1 ovarian, above 100 µM; in the assay with COLO 205 colon it was 22.6 µM; with A549 NSCLC it was 29.6 µM; in the assay with SN12C renal, above 100 µM; in the assay with MDA-MB-435 it was above 100 µM. In addition, the TGI with UACC-257 melanoma was above 100 µM; in the assay on NCI-H23 lung it was 66.7 µM; in the assay on SF-539 CNS, 7.38 µM.

Regarding `CCN(CC)Cc1cc(Nc2cc(C(F)(F)F)c(C#N)c3nc4ccccc4n23)ccc1O`, the GI50 in the assay on CCRF-CEM leukemia is 2.79 µM; in the assay on SF-295 CNS, 1.2 µM; in the assay on COLO 205 colon, 1.41 µM; with A549 NSCLC, 3.17 µM; in the assay on MDA-MB-435 it was 2.29 µM; in the assay with UACC-257 melanoma, 1.93 µM. Also, the GI50 with NCI-H23 lung is 1.21 µM; in the assay on SF-539 CNS, 2.7 µM. The TGI in the assay with CCRF-CEM leukemia was above 100 µM; in the assay with SF-295 CNS, 3.81 µM; in the assay with COLO 205 colon, 3.08 µM; in the assay with A549 NSCLC it was 12.5 µM; with MDA-MB-435 it was 13.5 µM; in the assay on UACC-257 melanoma it was 7.86 µM. In addition, the figures for the TGI with NCI-H23 lung and with SF-539 CNS were 8.29 µM and 11 µM, respectively.

In the case of `CN(C)c1ccc2c(c1)OC(N)=C(C#N)C2c1ccc2c(c1)CCCN2C` (configuration not stated), the GI50 with CCRF-CEM leukemia was 3.01 µM; in the assay on IGROV1 ovarian, 4.03 µM; in the assay with SF-295 CNS, 0.708 µM; in the assay on COLO 205 colon it was 2.44 µM; with A549 NSCLC it was 2.03 µM; with MDA-MB-435, 0.305 µM. Further, the GI50 with UACC-257 melanoma was 10.5 µM; in the assay on NCI-H23 lung, 2.83 µM; in the assay with SF-539 CNS it was 2.28 µM. The TGI was 49.2 µM in the assay on CCRF-CEM leukemia; above 100 µM in the assay with IGROV1 ovarian; 6.51 µM in the assay with SF-295 CNS; 6.51 µM in the assay on COLO 205 colon; above 100 µM in the assay on A549 NSCLC; 1.28 µM in the assay on MDA-MB-435. Further, the TGI with UACC-257 melanoma was 45.1 µM; in the assay with NCI-H23 lung it was 92.1 µM; with SF-539 CNS, 8.16 µM.

As to `Cc1ccc(NC2=CC(=O)C(=O)c3ccccc32)c(C)c1`, the GI50 in the assay with CCRF-CEM leukemia is 6.23 µM; in the assay on IGROV1 ovarian, 1.88 µM; in the assay on SF-295 CNS it was 1.68 µM; in the assay with COLO 205 colon, 3.06 µM; with A549 NSCLC, 1.97 µM; in the assay with SN12C renal, 2.81 µM. For the same compound, the GI50 in the assay on MDA-MB-435 was 1.79 µM; in the assay on UACC-257 melanoma, 1.96 µM; in the assay with NCI-H23 lung, 1.78 µM; with SF-539 CNS, 3.63 µM. Further, the TGI in the assay on CCRF-CEM leukemia was above 100 µM; in the assay with IGROV1 ovarian, 6.68 µM; with SF-295 CNS, 3.37 µM; in the assay with COLO 205 colon it was 11.6 µM; with A549 NSCLC it was 4.34 µM; with SN12C renal, 9.17 µM. Also, the TGI worked out at 3.48 µM with MDA-MB-435, 4.44 µM in the assay with UACC-257 melanoma, 4.51 µM with NCI-H23 lung and 13.2 µM in the assay on SF-539 CNS.

As to `O=c1c2ccccc2n2cnc3ccc(NCCNCCO)c1c32`, the TGI in the assay on CCRF-CEM leukemia was above 47.3 µM; with IGROV1 ovarian, 9.59 µM; with SF-295 CNS, 9.2 µM; with COLO 205 colon, 5.09 µM; with A549 NSCLC, 3.66 µM; in the assay on SN12C renal, 17 µM. For the same compound, the TGI with MDA-MB-435 came to 6.68 µM; with UACC-257 melanoma, 13.2 µM; in the assay with NCI-H23 lung it was 8.12 µM; with SF-539 CNS, 15.8 µM.

For `O=C(O)Cn1ccc(=O)c2c([N+](=O)[O-])cccc21`, the TGI in the assay on CCRF-CEM leukemia, in the assay on IGROV1 ovarian, in the assay with SF-295 CNS, with COLO 205 colon, in the assay on A549 NSCLC and in the assay with SN12C renal was above 100 µM throughout. For the same compound, the TGI in the assay with MDA-MB-435, in the assay with UACC-257 melanoma, with NCI-H23 lung and with SF-539 CNS was above 100 µM in each case.
